Data set [1] deals with dd male mice. The experiment in a line: Acute toxicity test. The settings on record: oral administration, mortality on the seventh day. In kind it is in vivo. As for the experimental part: The test compound was administered orally or intraperitoneally to animals per group of dd male mice (body weight: 20±1 g). The minimum lethal dose (MLD) value was obtained by observing mortality on the seventh day after the administration.

The test system of data set [2] is rats with partial urethral obstruction. The data set can be described thus: Activity to increase the bladder capacity of rats with partial urethral obstruction (intravesical saline infusion). Format: in vivo, rat. The settings on record: summary of Test Example 2. On the procedure: (§1) The experiment was carried out according to the method of Saito, et al. [J. Urol., Vol. 150, pp. 1045-1051 (1993)].
Male SD rats of 8 to 9 weeks of age (supplied by Japan SLC) were used in the test. Five to seven rats were put in each metal cage and reared by allowing them to freely take commercially available chow and water, in an animal room at a room temperature between 19 and 25° C. and humidity between 30 and 70% under illumination for 12 hours (from 7:00 a.m. to 7:00 p.m.) per day.
The rats were subjected to operation of partial urethral obstruction. […]
Five to seven days after the operation of the partial urethral obstruction and the catheter implantation, the rats with partial urethral obstruction and the sham-operated rats were put in Bollman cages (KN-326-1, Natsume Seisakusho Co., Ltd.) under restraint. […] One end of the cock was connected to a pressure transducer (DX-360, Nihon Kohden Corp.), and the intravesical pressure signal was amplified via a strain pressure amplifier (AP-601G, Nihon Kohden Corp.), measured with a polygraph (RMP-6008, Nihon Kohden Corp.) and recorded on a thermal array recorder (RTA-1200, Nihon Kohden Corp.). […] The bladder capacity was calculated from the period of time until occurrence of micturition (infusion rate 6 ml/h×infusion time). […]

Data set [3] has the same test system. The experiment in a line: Inhibitory activity on urinary frequency due to partial urethral obstruction (micturition test in metabolic cages). In kind it is in vivo, rat. On the procedure:
as §1
Male SD rats of 8 to 9 weeks of age (supplied by Japan SLC) were used in the test. Five to seven animals of these rats were put in each metal cage and reared by allowing them to freely take commercially available chow and water, in an animal room at room temperature between 19 and 25° C. and humidity between 30 and 70% under illumination for 12 hours (from 7:00 a.m. to 7:00 p.m.) per day.
The rats were subjected to operation of partial urethral obstruction. Each rat was anesthetized by intraperitoneal administration of 50 mg/kg pentobarbital sodium (Dainippon Pharmaceutical Co., Ltd.) and placed in the supine position. The abdominal midline incision was made in a length of about 1 cm to expose the bladder, prostate and the urethra. After the bladder neck and base were peeled from the prostate, two surgical suture threads (No. 3, Natsume Seisakusho Co., Ltd.) were passed behind the urethral base. A polyethylene tube (PE-200, Nippon Becton Dickinson Co., Ltd.) was placed along the urethra, and the urethra was loosely double-ligated together with the tube. The ligation was made in such a manner that the urethra was not pressed with the polyethylene tube and the suture was not slack. Then, the polyethylene tube was pulled out and the urethra was partially obstructed. The incised part of abdomen was sutured with a surgical thread.
Five to seven days after the partial urethral obstruction operation, the rats with partial urethral obstruction and the sham-operated rats were put in metabolic cages (KN-649, Natsume Seisakusho Co., Ltd.). For acclimation, the rats were reared for one day with free drinking and feeding, and the micturition test was started the following day. The amount of urination in the rats was continuously measured as the weight using an electronic balance (HF-200, A & D Company Ltd.), and was recorded on a thermal array recorder (RTA-1200, Nihon Kohden Corp.) via a direct current amplifier (AD-601G, Nihon Kohden Corp.). The data were collected during the light period under illumination (9:00-18:00) and the dark period without illumination (19:00-4:00), and the number of micturitions and the micturition volume in each period were measured to calculate the urinary frequency (the number of micturitions per 9 hours), the voided volume per micturition and the total urine volume as the measurement parameters. The voided volume per micturition was calculated by dividing the total urine volume per 9 hours by the urinary frequency per 9 hours. On the next day, a test compound or a vehicle (0.5 w/v% aqueous methylcellulose 400 cP solution) was orally administered twice (between 8:00 and 9:00, and between 18:00 and 19:00). The number of micturitions and the urine volume were measured from 9:00 to 18:00 and from 19:00 to 4:00 in the same manner as on the previous day to obtain the measurement values. The changes in the values of each parameter induced by the administration of the compound were also calculated. In the sham-operated group, the urinary frequency, the voided volume per micturition and the total urine volume obtained on the first day of the micturition test were compared with those in the groups of partial urethral obstruction. The average±standard error of the urinary frequency, voided volume per micturition and the total urine volume was calculated for each group.

The mark [4] stands for this setting: Dark period (Active period), after oral administration.
Setting [5] is: Dark period (Active period), before administration.
[6] abbreviates: Light period (Inactive period), after oral administration.
[7] abbreviates: Light period (Inactive period), before administration.

Structures are written as SMILES.

In the case of `C[C@](O)(C(=O)Nc1cccc2c1C(=O)c1sccc1CS2(=O)=O)C(F)(F)F` [Compound 1, (S)-(+)-N-(5,5-dioxido-10-oxo-4,10-dihydrothieno[3,2-c][1]benzothiepin-9-y1)-3,3,3-trifluoro-2-hydroxy-2-methylpropanamide], in data set [1], the “minimum lethal dose (MLD)” value is on record as over 1000 mg/kg. Also, in data set [2], the “effect on bladder capacity (in words)” value was “tended to increase” and the “effect on micturition volume (in words)” value is reported as “significantly increased”. In data set [3] (setting [4]), this compound showed a Total urine volume of 4.83 ± 0.83 mL/9 hours and a Urinary frequency of 6.7 ± 1.2 micturitions/9 hours. In data set [3] (setting [5]), this compound gave a Total urine volume of 3.57 ± 0.57 mL/9 hours and a Urinary frequency of 10.0 ± 1.3 micturitions/9 hours. In data set [3] (setting [6]), this compound gave a Total urine volume of 4.76 ± 0.78 mL/9 hours and a Urinary frequency of 5.3 ± 0.4 micturitions/9 hours. In data set [3] (setting [7]), this compound came in with a Total urine volume of 4.80 ± 0.31 mL/9 hours and a Urinary frequency of 8.7 ± 0.8 micturitions/9 hours. Also, in data set [3] (summary of Test Example 1), the “effect on urinary frequency (in words)” value is given as “significantly decreased” and the “effect on voided volume per micturition (in words)” value was “tended to increase”.

Source of the values: patent publication US7354949B2, “Therapeutic agent for bladder irritative symptoms associated with benign prostatic hyperplasia” (Kyowa Hakko Kogyo Co., Ltd., priority 2001, dated 2008).
